In patent US20220313693A1, “METHODS OF TREATING HIV IN PEDIATRIC PATIENTS WITH RILPIVIRINE” (priority 2019, published 2022):
Like-named read-outs stand apart in the source and are kept apart here.

Tests used:
[1] = adult and pediatric participants receiving abacavir in clinical studies; cited from earlier work
clinical = conditions: human, in vivo, 25 mg, mean ± SD, RPV 25 mg qd multiple dose; for AUC(0-t): AUC24h
[2] = Intensive PK assessment of RPV at steady state, Phase II open-label trial in ARV-naive HIV-1 infected adolescents and children; conditions: RPV 25 mg qd multiple dose
[3] = Adults, pooled ECHO/THRIVE, RPV 25 mg qd, N=44; cited from earlier work
[4] = Adolescents (Cohort 1, ≥12 to <18 years), N=23
[5] = Children ≥6-<12 years (Cohort 2), all bodyweights, N=10, preliminary analysis
[6] = Children ≥6-<12 years (Cohort 2), ≥25 kg only, N=5, preliminary analysis

Row | SMILES | Participants with hypersensitivity reactions [1] | AUC(0-t) (clinical; [4]) [ng·h/mL] | AUC(0-t) (clinical; [5]) [ng·h/mL] | AUC(0-t) (clinical; [6]) [ng·h/mL] | Cmax (clinical; [5]) [ng/mL] | Cmax (clinical; [6]) [ng/mL] | C0h (predose plasma concentration), mean ± SD [2, 4] [ng/mL] | Cmin, mean ± SD [2, 4] [ng/mL] | tmax, median [range] [2, 4] | C0h (predose plasma concentration), mean ± SD [2, 5] [ng/mL] | Cmin, mean ± SD [2, 5] [ng/mL] | C0h (predose plasma concentration), mean ± SD [2, 6] [ng/mL] | Cmin, mean ± SD [2, 6] [ng/mL] | tmax, median [range] [2, 6] | AUC24h, mean ± SD [3] [ng·h/mL] | C0h (predose plasma concentration), mean ± SD [3] [ng/mL] | Cmax, mean ± SD [3] [ng/mL] | Cmin, mean ± SD [3] [ng/mL]
1 | Nc1nc(NC2CC2)c2ncn([C@H]3C=C[C@@H](CO)C3)c2n1 [abacavir] | approximately 5% | – | – | – | – | – | – | – | – | – | – | – | – | – | – | – | – | –
2 | Cc1cc(/C=C/C#N)cc(C)c1Nc1ccnc(Nc2ccc(C#N)cc2)n1 [RPV, Rilpivirine] | – | 1870 ± 717 | 3020 ± 1610 | 2450 ± 735 | 182 ± 110 | 136 ± 46.1 | 80.8 ± 40.4 | 57.1 ± 26.3 | 5.00 (2.00-9.03) h | 118 ± 61.5 | 77 ± 38.4 | 104 ± 57 | 74 ± 29.7 | 4.00 (1.97-9.00) h | 2005 ± 970 | 67.6 ± 39.0 | 134 ± 72.0 | 53.7 ± 28.3
